Source: PMC8495455, “Discovery of a transdermally deliverable pentapeptide for activating AdipoR1 to promote hair growth” (EMBO Molecular Medicine, 2021)
“And” between values parts separate entries of the source, which are not always exact repeats. Equal values may be shown once.

How the values were obtained:
PDGFA protein = assay: Growth factor protein quantitation in DP cell medium, PDGFA; assay type: cell-based, human; settings: for protein_PDGFA: DP cell medium
From the text: (§1) Next, we investigated the downstream effects of P5 on hair growth factor genes and proteins in DP cells. […] We tested whether P5 can also increase the mRNA levels and proteins of hair growth factors in DP cells: IGF‐1, VEGF, HGF, platelet‐derived growth factor alpha (PDGFA), and fibroblast growth factor (FGF) 7, which are known to induce or maintain the anagen phase of the hair cycle (Jindo et al, [1994]; Philpott et al, [1994]; Yano et al, [2001]; Jang, [2005]; Tomita et al, [2006]; Iino et al, [2007]).
Human DP cells were grown on a 100‐mm cell culture dish to 100% confluency. After washed by PBS three times, the cells were cultured with serum‐free DMEM and treated with P5. After 48 h, the medium was collected and filtered by a […]. The filtrate was then concentrated using a centrifugal concentrator (Vivaspin 6, 10‐kDa molecular weight cutoff, centrifuged 2,600 g at 4°C for 13 min, Sartorius Stedim Biotech). The signals of each protein in the concentrated media were detected and quantified, based on the enzyme‐linked immunosorbent assay (Human Cytokine Antibody Array C2000, RayBiotech).

[1] = test system: AMPK phosphorylation through AdipoR1 in ORS cells; assay: Western blot p-AMPK in AdipoR1 siRNA-transfected ORS cells; assay type: cell-based, human
From the text: Following the confirmation of the molecular interaction between AdipoR1 and P5, we evaluated the activation of the intracellular signaling pathway by P5. We investigated whether APN treatment on ORS and DP cells could activate AMPK or ERK signaling pathways, which are previously known to be downstream effectors of AdipoR1 (Mao et al, [2006]; Deepa & Dong, [2009]; Shibata et al, [2012]). […] Next, for determination of whether both P5 and APN mediates the phosphorylation of AMPK through AdipoR1 in ORS and DP cells, the cells were transfected with AdipoR1 siRNA (Appendix Fig S1). […] Collectively, P5 activates AMPK signaling pathway through AdipoR1 in ORS and DP cells in vitro.
All transfections were performed using Lipofectamine 2000 following the manufacturer’s instructions (#11668019; Thermo Fisher). Human DP and ORS cells were cultured without antibiotics until reaching 50% confluency. AdipoR1 or scrambled siRNA (Bioneer) was used. The culture medium was changed 6 h after transfection, and the cells were incubated for another 24 h before subsequent analyses.
Human ORS and DP cells or skin tissue were lysed (RIPA lysis buffer; #20‐188; Merck Millipore). […] Antibody‐antigen complexes detected by enhanced chemiluminescent substrate (Thermo Fisher) were captured and quantified by Amersham imager 680 systems (GE Healthcare).

[2] = test system: matrix cells of human HF bulbs; assay: IF staining Ki-67 of ex vivo cultured HF bulb; assay type: cell-based; settings: for Numbers of Ki-67-positive cells normalized to DAPI-stained cells: ex vivo cultured HF bulb, individual HFs, n = 8
From the text: We next investigated whether P5 can reproduce the effects of APN on hair growth promotion ex vivo (Won et al, [2012]) using ex vivo human HF organ culture model. […] The Ki‐67‐positive cell portion of the matrix area in the P5‐treated HFs was higher than that in the vehicle‐treated group (Fig 3E).
Paraffin‐embedded mouse cutaneous back tissue was sectioned (4 μm thickness) and stained with hematoxylin and eosin. For IF staining, human ORS cells cultured in FiTC‐P5, sectioned paraffin‐embedded human HFs (7 μm thickness), and sectioned paraffin‐embedded mouse cutaneous dorsal tissue or human skin tissue (5 μm thickness) were incubated at 4°C overnight with the following primary antibodies diluted in the diluent reagent (Invitrogen): phospho‐AMPK (#2535, 1:100; Cell Signaling), Ki‐67 (#M7240, 1:200; Dako), versican (#ab177480, 1:200; Abcam), or AdipoR1 antibody (#ab126611, 1:200; Abcam). After three washes with PBS, the slides were incubated with the secondary Alexa Fluor 488‐labeled anti‐mouse or rabbit IgG antibody (#ab150077, #ab150113, 1:200; Invitrogen), or Alexa Fluor 594‐labeled anti‐rabbit IgG antibody (#a11012, 1:200; Invitrogen) at 25°C for 1 h. Nuclei were counterstained with 4′,6‐diamidino‐2‐phenylindole (DAPI; #D1306, 1:1,000; Invitrogen). Microscopic observations were performed with a Nikon Eclipse Ci‐L microscope (Nikon). IF intensity was observed and recorded with a Nikon Eclipse Ni‐E fluorescence microscope (Nikon).

HGF mRNA = assay: qRT-PCR growth factor gene expression in DP cells, HGF; assay type: cell-based, human; settings: for mRNA_HGF: DP cells
From the text: as §1
Total RNA was isolated from P5‐treated DP cells using RNAiso Plus (#9109; TaKaRa). We used the total RNA (1 µg) for cDNA synthesis using a RevertAid First Strand cDNA Synthesis Kit (Thermo Fisher) according to the manufacturer's instructions. The mRNA expression levels were quantified on a 7500 Real‐time PCR System (Thermo Fisher) using TB Green Premix Ex Taq (TaKaRa Bio): human IGF‐1, VEGF, HGF, PDGFA, FGF7, and glyceraldehyde 3‐phosphate dehydrogenase (GAPDH) (Appendix Table S2). The relative expression levels of each gene were determined by the 2^‐ΔΔCT method.

[3] = P5 5μM, relative to Control = 1, replicate 1
[4] = P5 5μM, relative to Control = 1, replicate 2
[5] = P5 5μM, relative to Control = 1, replicate 3
[6] = P5 25μM, relative to Control = 1, replicate 1
[7] = P5 25μM, relative to Control = 1, replicate 2
[8] = P5 25μM, relative to Control = 1, replicate 3

Substance: GLYYF [P5, GST-fused (GST-P5) in pulldown assays]
- protein_PDGFA (PDGFA protein; [3]): 2.032
- protein_PDGFA (PDGFA protein; [4]): 1.0925
- protein_PDGFA (PDGFA protein; [5]): 1.228
- protein_PDGFA (PDGFA protein; [6]): 3.073
- protein_PDGFA (PDGFA protein; [7]): 1.25
- protein_PDGFA (PDGFA protein; [8]): 1.481
- PDGFA protein expression level (PDGFA protein; P5-treated DP cells, 48 h medium, n = 3): elevated
- p-AMPK intensity after AdipoR1 siRNA transfection, ORS cells [1]: intensity was reduced
- Numbers of Ki-67-positive cells normalized to DAPI-stained cells ([2]; P5 5μM): 0.25 and 0.29 and 0.26 and 0.24 and 0.3 and 0.22 and 0.21
- Numbers of Ki-67-positive cells normalized to DAPI-stained cells ([2]; P5 25μM): 0.29 and 0.28 and 0.31 and 0.37 and 0.42 and 0.41 and 0.43 and 0.33
- Ki-67 in matrix cells of HF bulbs ([2]; ex vivo cultured human HFs, vs vehicle): increased significantly
- mRNA_HGF (HGF mRNA; [3]): 3.441
- mRNA_HGF (HGF mRNA; [4]): 1.115
- mRNA_HGF (HGF mRNA; [5]): 3.233
- mRNA_HGF (HGF mRNA; P5 5μM, relative to Control = 1, replicate 4): 5.51
- mRNA_HGF (HGF mRNA; P5 5μM, relative to Control = 1, replicate 5): 1.947
- mRNA_HGF (HGF mRNA; P5 5μM, relative to Control = 1, replicate 6): 1.893
- mRNA_HGF (HGF mRNA; [6]): 6.428
- mRNA_HGF (HGF mRNA; [7]): 1.581
- mRNA_HGF (HGF mRNA; [8]): 2.359
- mRNA_HGF (HGF mRNA; P5 25μM, relative to Control = 1, replicate 4): 5.518
- mRNA_HGF (HGF mRNA; P5 25μM, relative to Control = 1, replicate 5): 2.408
- mRNA_HGF (HGF mRNA; P5 25μM, relative to Control = 1, replicate 6): 2.218
- HGF mRNA expression (HGF mRNA; P5-treated DP cells, n = 6): significantly increased
